Laboratory results from patent publication US8026218B2, “Bifunctional analgesic compounds for opioid receptor agonists and neurokinin-1 receptor antagonists” (The University of Arizona, priority 2006, dated 2011).
Like-named read-outs stand apart in the source and are kept apart here. Peptide text beside a SMILES is read from it.

What was measured:
[1] = target: T1, human δ opioid receptors (hDOR) (Homo sapiens, UniProt P41143); experiment: Radioligand competition binding, [3H]DPDPE, hDOR membranes
T1 construct: expressed in transfected cells; host or cells: HN9.10 neuroblastoma cell line, pCDNA3, neomycin-selected clones
T1 sequence (P41143 whole entry): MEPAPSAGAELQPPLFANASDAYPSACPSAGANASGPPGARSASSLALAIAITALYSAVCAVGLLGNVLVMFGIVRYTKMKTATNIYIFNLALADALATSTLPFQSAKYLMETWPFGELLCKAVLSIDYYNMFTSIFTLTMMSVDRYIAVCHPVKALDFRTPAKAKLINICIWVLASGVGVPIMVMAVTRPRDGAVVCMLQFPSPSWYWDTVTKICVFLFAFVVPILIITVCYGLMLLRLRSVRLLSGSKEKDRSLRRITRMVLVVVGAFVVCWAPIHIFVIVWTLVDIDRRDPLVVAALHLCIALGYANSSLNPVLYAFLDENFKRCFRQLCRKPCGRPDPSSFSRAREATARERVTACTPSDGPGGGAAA

[2] = target: T2, δ opioid receptors (MVD) (Mus musculus, UniProt P32300); experiment: Mouse isolated vas deferens (MVD) assay, opioid agonist
T2 construct: from tissue; host or cells: mouse (ICR) isolated vas deferens
T2 sequence (P32300 whole entry): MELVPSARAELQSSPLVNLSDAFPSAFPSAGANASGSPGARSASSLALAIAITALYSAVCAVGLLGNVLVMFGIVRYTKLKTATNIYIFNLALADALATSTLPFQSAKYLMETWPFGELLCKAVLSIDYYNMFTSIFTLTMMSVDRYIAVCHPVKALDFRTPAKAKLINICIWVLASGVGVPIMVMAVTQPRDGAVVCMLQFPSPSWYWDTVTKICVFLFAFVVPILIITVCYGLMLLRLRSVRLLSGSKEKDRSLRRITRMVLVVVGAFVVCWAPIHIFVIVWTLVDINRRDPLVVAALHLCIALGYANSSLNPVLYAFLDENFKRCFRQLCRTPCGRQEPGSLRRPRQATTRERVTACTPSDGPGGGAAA

[3] = target: T3, rat μ opioid receptors (rMOR) (Rattus norvegicus, UniProt P33535); experiment: biochemical; assay type: biochemical; details: Table 32; for EC50: read-out: GTP rMOR EC50; for Emax: read-out: GTP rMOR EMax
T3 construct: expressed in transfected cells; host or cells: HN9.10 neuroblastoma cell line, pCDNA3, neomycin-selected clones
T3 sequence (P33535 whole entry): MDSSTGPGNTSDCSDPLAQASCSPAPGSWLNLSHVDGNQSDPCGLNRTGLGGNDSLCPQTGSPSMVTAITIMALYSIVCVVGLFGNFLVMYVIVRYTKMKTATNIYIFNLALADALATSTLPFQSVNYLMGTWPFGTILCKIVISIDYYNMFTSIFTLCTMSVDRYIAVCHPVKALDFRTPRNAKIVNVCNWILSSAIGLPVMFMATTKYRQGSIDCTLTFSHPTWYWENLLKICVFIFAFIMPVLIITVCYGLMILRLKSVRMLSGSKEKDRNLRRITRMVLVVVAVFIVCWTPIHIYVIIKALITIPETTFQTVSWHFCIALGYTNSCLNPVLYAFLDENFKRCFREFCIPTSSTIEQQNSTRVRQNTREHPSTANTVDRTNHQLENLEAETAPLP

[4] = target: T1, human δ opioid receptors (hDOR); experiment: [35S]GTP-γ-S binding assay, hDOR; assay type: biochemical; details: Table 32; for EC50: read-out: GTP hDOR EC50; for Emax: read-out: GTP hDOR EMax
[5] = target: T4, Substance P receptors (guinea pig NK1) (Cavia porcellus, UniProt P30547); experiment: Guinea pig isolated ileum (GPI) assay with substance P stimulation in presence of 1 μM naloxone
T4 construct: from tissue; host or cells: guinea pig (Hartley) ileum LMMP, 1 μM naloxone present
T4 sequence (P30547 whole entry): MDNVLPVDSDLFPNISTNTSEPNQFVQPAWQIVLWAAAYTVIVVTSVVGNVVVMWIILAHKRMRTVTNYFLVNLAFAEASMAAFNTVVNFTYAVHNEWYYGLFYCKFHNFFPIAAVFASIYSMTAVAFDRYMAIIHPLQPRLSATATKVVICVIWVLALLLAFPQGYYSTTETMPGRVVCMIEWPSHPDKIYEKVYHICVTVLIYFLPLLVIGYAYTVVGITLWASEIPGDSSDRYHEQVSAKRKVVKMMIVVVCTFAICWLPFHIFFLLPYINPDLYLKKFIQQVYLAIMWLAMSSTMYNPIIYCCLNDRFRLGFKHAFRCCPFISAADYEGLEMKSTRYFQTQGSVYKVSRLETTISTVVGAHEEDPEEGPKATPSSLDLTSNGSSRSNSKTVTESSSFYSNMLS
Method: Testing stopped at 1 mM concentrations of the test compound.
Analysis of GPI and MVD assays. For opioid data analysis, percentage inhibition was calculated using the average tissue contraction height for 1 min preceding the addition of the agonist divided by the contraction height 3 min after exposure to the dose of agonist. […] IC50 and Emax estimates were determined by computerized nonlinear least-squares analysis (the pharmacological statistics package FlashCalc: Dr. Michael Ossipov, University of Arizona, Tucson, Ariz.). […] A50 values represent the mean of not less than 4 tissues. A50 and Emax estimates were determined by computerized nonlinear least-squares analysis (FlashCalc).

[6] = test system: μ opioid receptors (GPI); experiment: Guinea pig isolated ileum (GPI) assay, opioid agonist;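 further: inhibition of electrically evoked contractions (0.1 Hz, 0.4 msec, supramaximal voltage) in organ baths at 37 °C, contraction height 3 min after each cumulative dose versus the 1 min before dosing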
[7] = target: T5, human NK1 receptor (hNK1) (Homo sapiens, UniProt P25103); experiment: Radioligand competition binding, [3H]-Substance P, hNK1
T5 construct: expressed in transfected cells
T5 sequence (P25103 whole entry): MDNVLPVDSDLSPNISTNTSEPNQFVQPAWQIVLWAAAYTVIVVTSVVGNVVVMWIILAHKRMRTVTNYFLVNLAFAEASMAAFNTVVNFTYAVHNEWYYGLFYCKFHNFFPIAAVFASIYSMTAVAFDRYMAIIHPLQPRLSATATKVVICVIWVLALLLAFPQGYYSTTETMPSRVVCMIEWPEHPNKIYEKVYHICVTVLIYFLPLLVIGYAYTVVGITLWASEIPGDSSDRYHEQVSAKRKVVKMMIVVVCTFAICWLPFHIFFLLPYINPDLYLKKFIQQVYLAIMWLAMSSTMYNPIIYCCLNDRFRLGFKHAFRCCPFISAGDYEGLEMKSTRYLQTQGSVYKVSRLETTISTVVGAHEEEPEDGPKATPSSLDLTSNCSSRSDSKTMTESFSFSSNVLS

[8] = target: T6, rat NK1 (rNK1) receptor (Rattus norvegicus, UniProt P14600); experiment: Radioligand competition binding, [3H]substance P, rNK1/CHO membranes
T6 construct: expressed in transfected cells; host or cells: CHO (rNK-1/CHO cell line from Dr. James Krause)
T6 sequence (P14600 whole entry): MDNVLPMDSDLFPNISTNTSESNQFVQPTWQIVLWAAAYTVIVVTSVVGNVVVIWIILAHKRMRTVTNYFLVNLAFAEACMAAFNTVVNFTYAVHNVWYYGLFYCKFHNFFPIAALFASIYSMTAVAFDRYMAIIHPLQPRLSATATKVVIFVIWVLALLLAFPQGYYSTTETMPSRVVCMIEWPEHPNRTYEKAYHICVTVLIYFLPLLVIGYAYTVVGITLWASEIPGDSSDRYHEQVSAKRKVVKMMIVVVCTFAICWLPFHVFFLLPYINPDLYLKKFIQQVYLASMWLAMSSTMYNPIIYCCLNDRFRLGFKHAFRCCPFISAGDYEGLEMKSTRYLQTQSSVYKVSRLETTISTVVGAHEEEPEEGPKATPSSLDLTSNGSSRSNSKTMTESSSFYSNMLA

[9] = GPI/LMMP SP antagonist Ke (nM), Table 35
[10] = Table 35, read-out: GPI/LMMP μ-agonist IC50

| Compound | Ki [1] [nM] | IC50 [2] [nM] | EC50 [3] [nM] | Emax [3] [%] | EC50 [4] [nM] | Emax [4] [%] | Kb [5, 9] [nM] | IC50 [6, 10] [nM] | Ki [7] [nM] | Ki ([8]; Affinity (Ki, nM) rNK1, Table 32) [nM] | Ki ([8]; Ki (nM) rNK1, Table 33) [nM] | MVD δ-agonist, % at 1 μM ([2]; Table 36, at 1 μM) [% at 1 μM] | GPI SP-antagonist activity @ 1 μM ([5]; Table 36, @ 1 μM) | GPI μ-agonist, % at 1 μM ([6]; Table 36, at 1 μM) [% at 1 μM] | Kb ([5]; GPI SP-antagonist Ke (nM), Table 36) [nM] | IC50 ([6]; Table 36, read-out: GPI μ-agonist IC50) [nM] |
| --- | --- | --- | --- | --- | --- | --- | --- | --- | --- | --- | --- | --- | --- | --- | --- | --- |
| C[C@H](NC(=O)[C@H](Cc1ccccc1)NC(=O)CNC(=O)[C@@H](C)NC(=O)[C@@H](N)Cc1ccc(O)cc1)C(=O)N[C@@H](Cc1c[nH]c2ccccc12)C(=O)OCc1cc(C(F)(F)F)cc(C(F)(F)F)c1 [NP31] (HELM PEPTIDE1{Y.[dA].G.F.A.W.[FC(F)(F)c1cc(CO[*:1])cc(C(F)(F)F)c1]}$$$$V2.0; N-terminus assumed) | 1.2 | 6.4 | 11 | 50 | 3.3 | 91 | 18.6 | 401 | – | – | – | – | – | – | – | – |
| CC[C@H](NC(=O)[C@H](Cc1ccccc1)NC(=O)CNC(=O)[C@@H](C)NC(=O)[C@@H](N)Cc1ccc(O)cc1)C(=O)N[C@@H](Cc1c[nH]c2ccccc12)C(=O)OCc1cc(C(F)(F)F)cc(C(F)(F)F)c1 [NP33] (HELM PEPTIDE1{Y.[dA].G.F.[Abu].W.[FC(F)(F)c1cc(CO[*:1])cc(C(F)(F)F)c1]}$$$$V2.0; N-terminus assumed) | 1.6 | 12.4 | 8.6 | 32 | 2.9 | 43 | 5.6 | 600 | – | – | – | – | – | – | – | – |
| C[C@@H](NC(=O)[C@@H](N)Cc1ccc(O)cc1)C(=O)NCC(=O)N[C@@H](Cc1ccccc1)C(=O)NCCCC(=O)N[C@@H](Cc1c[nH]c2ccccc12)C(=O)OCc1cc(C(F)(F)F)cc(C(F)(F)F)c1 [NP34] (HELM PEPTIDE1{Y.[dA].G.F.[O=C(CCCN[*:1])[*:2]].W.[FC(F)(F)c1cc(CO[*:1])cc(C(F)(F)F)c1]}$$$$V2.0; N-terminus assumed) | – | 67.9 | 17.4 | 27 | 16.5 | 40 | 0.96 | 200 | 0.001 | – | – | – | – | – | – | – |
| C[C@@H](NC(=O)[C@@H](N)Cc1ccc(O)cc1)C(=O)NCC(=O)N[C@@H](Cc1ccccc1)C(=O)NC(C)(C)C(=O)N[C@@H](Cc1c[nH]c2ccccc12)C(=O)OCc1cc(C(F)(F)F)cc(C(F)(F)F)c1 [NP41] (HELM PEPTIDE1{Y.[dA].G.F.[Aib].W.[FC(F)(F)c1cc(CO[*:1])cc(C(F)(F)F)c1]}$$$$V2.0; N-terminus assumed) | – | 36.2 | 105 | 36 | 37.7 | 65 | – | – | 0.008 | 3.4 | – | – | – | – | – | – |
| N[C@@H](Cc1ccc(O)cc1)C(=O)NCC(=O)N[C@@H](Cc1c[nH]c2ccccc12)C(=O)OCc1cc(C(F)(F)F)cc(C(F)(F)F)c1 [NP42] | – | – | – | – | – | – | – | – | 0.003 | – | 0.36 | 7.5 | None @ 1 μM | 2.6 | – | – |
| C[C@@H](NC(=O)[C@@H](N)Cc1ccc(O)cc1)C(=O)NCC(=O)N[C@@H](Cc1ccc(F)cc1)C(=O)OCc1cc(C(F)(F)F)cc(C(F)(F)F)c1 [NP62] | – | 184 | – | – | – | – | – | – | 0.2 | – | – | – | – | – | 51.8 | 208 |
